This passage reports IC50 results from patent EP0674651B1, “SUBSTITUTED 6-AZAANDROSTENONES” (priority 1992, dated 1994).

Assay [1] has as its target T1, human type 1 5α-reductase (Homo sapiens, UniProt P18405).
T1 sequence (P18405 1-259): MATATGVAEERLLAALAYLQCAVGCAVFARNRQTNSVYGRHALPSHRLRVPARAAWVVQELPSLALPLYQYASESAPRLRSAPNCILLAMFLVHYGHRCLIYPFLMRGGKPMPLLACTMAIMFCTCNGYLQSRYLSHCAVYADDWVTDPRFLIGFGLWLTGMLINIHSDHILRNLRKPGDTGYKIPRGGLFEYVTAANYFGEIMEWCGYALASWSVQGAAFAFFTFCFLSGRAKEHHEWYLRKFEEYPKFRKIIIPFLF
The assay is described as follows: 5α-reductase in vitro inhibitory activity, human type 1.
Description: Microsomes were prepared by homogenization of the tissue or cells, followed by differential centrifugation of the homogenate. […] Corresponding incubations were carried out with no test compound as a control study.
For type 2 IC50 measurements, assay components except testosterone were preincubated for 20 minutes at pH 6.0, and following the addition of 8nM testosterone the assays were allowed to proceed for 20-40 minutes. The percentage of conversion of testosterone to DHT in the presence of test compounds compared to the corresponding conversion in the control study was estimated using high pressure liquid chromatography (HPLC) with radiochemical detection.

The target in assay [2] is T2, human type 2 5α-reductase (Homo sapiens, UniProt P31213).
T2 sequence (P31213 1-254): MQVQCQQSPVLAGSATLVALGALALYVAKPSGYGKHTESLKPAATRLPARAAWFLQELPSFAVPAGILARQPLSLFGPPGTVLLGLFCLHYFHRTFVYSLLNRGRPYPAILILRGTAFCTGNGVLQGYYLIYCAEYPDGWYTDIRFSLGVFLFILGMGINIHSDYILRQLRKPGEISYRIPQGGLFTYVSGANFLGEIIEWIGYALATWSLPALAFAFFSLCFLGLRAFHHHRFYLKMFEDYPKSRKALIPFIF
Put plainly: 5α-reductase in vitro inhibitory activity, human type 2.

Bounds are passed on as bounds.

What is called IC50 is the point on the concentration scale where inhibition reaches its midpoint. A higher IC50 goes with weaker potency in that assay.

`C[C@]12CC[C@H]3[C@@H](CNC4=CC(=O)CC[C@@]43C)[C@@H]1CC[C@@H]2C(=O)NNc1ccccc1` [Compound 141, 17β-N-(2-Phenyl)-hydrazidyl-carbamoyl-6-azaandrost-4-en-3-one]: the IC50 in assay [1] is above 100 nM; in assay [2] it was below 10 nM. For `CC(C)(C)c1ccc(C2(NC(=O)[C@H]3CC[C@H]4[C@@H]5CNC6=CC(=O)CC[C@]6(C)[C@H]5CC[C@]34C)CCCCCC2)cc1` [Compound 136, 17β-N-1-(4-t-Butylphenyl)cycloheptyl-carbamoyl-6-azaandrost-4-en-3-one], in that order: below 10 nM and below 10 nM.

Regarding `C[C@]12CC[C@H]3[C@@H](CNC4=CC(=O)CC[C@@]43C)[C@@H]1CC[C@@H]2C(=O)N1CCC(Cc2ccccc2)CC1` [Compound 37, 17β-N-(4-Benzyl)piperidyl-carbamoyl-6-azaandrost-4-en-3-one], the IC50 was 10 to 100 nM in assay [1] and below 10 nM in assay [2].

Turning to `C[C@]12CC[C@H]3[C@@H](CNC4=CC(=O)CC[C@@]43C)[C@@H]1CC[C@@H]2C(=O)NC1(c2cccc(C(F)(F)F)c2)CCCC1` [Compound 102, 17β-N-1-(3-Trifluoromethylphenyl)cyclopentyl-carbamoyl-6-azaandrost-4-en-3-one], the IC50 in assay [1] and in assay [2] was below 10 nM in each case. As for `CC1(C)CC(NC(=O)[C@H]2CC[C@H]3[C@@H]4CNC5=CC(=O)CC[C@]5(C)[C@H]4CC[C@]23C)CC(C)(C)C1` [Compound 59, 17β-N-(3,5-Tetramethyl)cyclohexyl-carbamoyl-6-azaandrost-4-en-3-one], the figures for the half-maximal inhibitory concentration (IC50) in assay [1] and in assay [2] were above 100 nM and 10 to 100 nM, respectively. Consider `CC(C)c1cccc(C(C)C)c1NC(=O)OC[C@H]1CC[C@H]2[C@@H]3CNC4=CC(=O)CC[C@]4(C)[C@H]3CC[C@]12C` [Compound 99, 17β-Hydroxymethyl-(2,6-diisopropylphenylcarbamate)-6-azaandrost-4-en-3-one], for which the IC50 in assay [1] and in assay [2] was below 10 nM each time.

On to `CC(C)c1cc(C(C)C)c(C(=O)[C@H]2CC[C@H]3[C@@H]4CNC5=CC(=O)CC[C@]5(C)[C@H]4CC[C@]23C)c(C(C)C)c1` [Compound 60, 17β-(1-Oxo-1-((2,4,6-tri-i-propyl)phenyl)methyl)-6-azaandrost-4-en-3-one], for which the IC50 in assay [1] was above 100 nM; in assay [2], 10 to 100 nM. On to `CC1CCC(C(C)C)C(OC(=O)OC[C@H]2CC[C@H]3[C@@H]4CNC5=CC(=O)CC[C@]5(C)[C@H]4CC[C@]23C)C1` (stereo partly drawn) [Compound 89, 17β-Hydroxymethyl-(menthylcarbonate)-6-azaandrost-4-en-3-one], for which the values for the IC50 in assay [1] and in assay [2] were 10 to 100 nM and below 10 nM, respectively. For `CC(=O)NC[C@H]1CC[C@H]2[C@@H]3CNC4=CC(=O)CC[C@]4(C)[C@H]3CC[C@]12C` [Compound 97, 17β-Aminomethyl-(acetamide)-6-azaandrost-4-en-3-one], in that order: above 100 nM and 10 to 100 nM. In the case of `COc1ccc(C2(NC(=O)[C@H]3CC[C@H]4[C@@H]5CNC6=CC(=O)CC[C@]6(C)[C@H]5CC[C@]34C)CCCC2)cc1` [Compound 115, 17β-N-1-(4-Methoxyphenyl)cyclopentyl-carbamoyl-6-azaandrost-4-en-3-one], the IC50 in assay [1] and in assay [2] was below 10 nM in each case. Take `COC(=O)c1sc(C(C)(C)C)cc1NC(=O)[C@H]1CC[C@H]2[C@@H]3CNC4=CC(=O)CC[C@]4(C)[C@H]3CC[C@]12C` [Compound 132, 17β-N-3-(2-Carbomethoxy-5-t-butyl)thiophenyl-carbamoyl-6-azaandrost-4-en-3-one]: the figures for the IC50 in assay [1] and in assay [2] were 10 to 100 nM and below 10 nM, respectively.

As for `CC(C)(C)NC(=O)c1ccc(C(F)(F)F)cc1NC(=O)[C@H]1CC[C@H]2[C@@H]3CNC4=CC(=O)CC[C@]4(C)[C@H]3CC[C@]12C` [Compound 142, 17β-N-(2-t-Butylcarbamoyl-5-trifluoromethyl)phenyl-carbamoyl-6-azaandrost-4-en-3-one], the IC50 in assay [1] was above 100 nM; in assay [2], below 10 nM. Regarding `C[C@]12CC[C@H]3[C@@H](CNC4=CC(=O)CC[C@@]43C)[C@@H]1CC[C@@H]2C(=O)NC1(c2ccc(Cl)cc2)CCCC1` [Compound 64, 17β-N-1-(4-Chlorophenyl)cyclopentyl-carbamoyl-6-azaandrost-4-en-3-one], the IC50 in assay [1] and in assay [2] was below 10 nM throughout. Consider `CC(C)(C)c1ccc(-c2ccc(Cl)cc2)cc1NC(=O)[C@H]1CC[C@H]2[C@@H]3CNC4=CC(=O)CC[C@]4(C)[C@H]3CC[C@]12C` [Compound 120, 17β-N-(2-t-Butyl-5-(4-chlorophenyl))phenyl-carbamoyl-6-azaandrost-4-en-3-one], for which the half-maximal inhibitory concentration (IC50) in assay [1] and in assay [2] was below 10 nM throughout. Regarding `CCc1ccc(Cl)c(CC)c1NC(=O)[C@H]1CC[C@H]2[C@@H]3CNC4=CC(=O)CC[C@]4(C)[C@H]3CC[C@]12C` [Compound 55, 17β-N-(2,6-Diethyl-3-chloro)phenyl-carbamoyl-6-azaandrost-4-en-3-one], the figures for the concentration for half-maximal inhibition (IC50) in assay [1] and in assay [2] were 10 to 100 nM and below 10 nM, respectively. Consider `CCN(CC)C(=O)c1ccc(C(C)(C)C)c(NC(=O)[C@H]2CC[C@H]3[C@@H]4CNC5=CC(=O)CC[C@]5(C)[C@H]4CC[C@]23C)c1` [Compound 105, 17β-N-(2-t-Butyl-5-N,N-diethylcarbamoyl)phenyl-carbamoyl-6-azaandrost-4-en-3-one], for which the half-inhibitory concentration (IC50) in assay [1] and in assay [2] was below 10 nM in each case. `CC(C)(C)c1ccccc1NC(=O)[C@H]1CC[C@H]2[C@@H]3CNC4=CC(=O)CC[C@]4(C)[C@H]3CC[C@]12C` [Compound 56, 17β-N-(2-t-Butyl)phenyl-carbamoyl-6-azaandrost-4-en-3-one]: the IC50 in assay [1] is 10 to 100 nM; in assay [2], below 10 nM. The like results for `CC(C)(C)c1ccc(NC(=O)[C@H]2CC[C@H]3[C@@H]4CNC5=CC(=O)CC[C@]5(C)[C@H]4CC[C@]23C)c(C(F)(F)F)c1` [Compound 100, 17β-N-(4-t-Butyl-2-trifluoromethyl)phenyl-carbamoyl-6-azaandrost-4-en-3-one] were, in that order, below 10 nM and below 10 nM. In the case of `CC(C)(C)c1ccc(C(NC(=O)[C@H]2CC[C@H]3[C@@H]4CNC5=CC(=O)CC[C@]5(C)[C@H]4CC[C@]23C)C(C)(C)C)cc1` (stereo partly drawn) [Compound 73, 17β-N-(1-t-Butyl-1-(4-t-butylphenyl))methyl-carbamoyl-6-azaandrost-4-en-3-one], the IC50 in assay [1] and in assay [2] was below 10 nM each time. Regarding `CC(C)(C)c1ccc(NC(=O)[C@H]2CC[C@H]3[C@@H]4CNC5=CC(=O)CC[C@]5(C)[C@H]4CC[C@]23C)c(Cl)c1` [Compound 72, 17β-N-(2-Chloro-4-t-butyl)phenyl-carbamoyl-6-azaandrost-4-en-3-one], the results for the IC50 in assay [1] and in assay [2] were 10 to 100 nM and below 10 nM, respectively. For `CC1=C2NC[C@H]3[C@@H]4CC[C@H](C(=O)Nc5cc(C(F)(F)F)ccc5C(F)(F)F)[C@@]4(C)CC[C@@H]3[C@@]2(C)CCC1=O` [Compound 116, 17β-N-(2,5-bis(Trifluoromethyl))phenyl-carbamoyl-6-azaandrost-4-methyl-4-en-3-one], in that order: below 10 nM and below 10 nM. For `C[C@]12CC[C@H]3[C@@H](CNC4=CC(=O)CC[C@@]43C)[C@@H]1CC[C@@H]2C(=O)Nc1cccc2c1C(=O)c1ccccc1-2` [Compound 138, 17β-N-1-(9-Fluorenonyl)-carbamoyl-6-azaandrost-4-en-3-one], in that order: 10 to 100 nM and below 10 nM. Regarding `C[C@]12CC[C@H]3[C@@H](CNC4=CC(=O)CC[C@@]43C)[C@@H]1CC[C@@H]2C(=O)Nc1ccccc1S(=O)(=O)c1ccccc1` [Compound 133, 17β-N-(2-Phenylsulfonyl)phenyl-carbamoyl-6-azaandrost-4-en-3-one], the half-maximal inhibitory concentration (IC50) is above 100 nM in assay [1] and below 10 nM in assay [2].

Regarding `CC1=C2NC[C@H]3[C@@H]4CC[C@H](C(=O)Nc5c(C(C)C)cccc5C(C)C)[C@@]4(C)CC[C@@H]3[C@@]2(C)C=CC1=O` [Compound 94, 17β-N-(2,6-Di-i-propyl)phenyl-carbamoyl-6-azaandrost-4-methyl-1,4-dien-3-one], the half-maximal inhibitory concentration (IC50) is 10 to 100 nM in assay [1] and below 10 nM in assay [2]. For `CC(C)NC(=O)N(C(=O)[C@H]1CC[C@H]2[C@@H]3CNC4=CC(=O)CC[C@]4(C)[C@H]3CC[C@]12C)C(C)C` [Compound 95, 17β-(N-i-Propyl-N-(N-i-propylcarbamoyl))-carbamoyl-6-azaandrost-4-en-3-one], in that order: above 100 nM and 10 to 100 nM. The like results for `CC(C)(C)c1cc(Br)ccc1NC(=O)[C@H]1CC[C@H]2[C@@H]3CNC4=CC(=O)CC[C@]4(C)[C@H]3CC[C@]12C` [Compound 77, 17β-N-(4-Bromo-2-t-butyl)phenyl-carbamoyl-6-azaandrost-4-en-3-one] were, in that order, below 10 nM and below 10 nM. `C[C@]12CC[C@H]3[C@@H](CNC4=CC(=O)CC[C@@]43C)[C@@H]1CC[C@@H]2C(=O)NC(c1ccc(F)cc1)c1ccc(F)cc1` [Compound 24, 17β-N-Bis-(4-fluorophenyl)methyl-carbamoyl-6-azaandrost-4-en-3-one] returned an IC50 in assay [1] of 10 to 100 nM.

Turning to `CC(C)(C)N(O)C(=O)[C@H]1CC[C@H]2[C@@H]3CNC4=CC(=O)CC[C@]4(C)[C@H]3CC[C@]12C` [Compound 41, 17β-N-Hydroxy-N-t-butyl-carbamoyl-6-azaandrost-4-en-3-one], in assay [1], the 50% inhibitory concentration (IC50) was 10 to 100 nM.
